Six molecules from patent US12516293B2, “Reagents and methods with Wnt agonists and bioactive lipids for generating and expanding cardiomyocytes” (The Board of Trustees of the Leland Stanford Junior …, priority 2018, dated 2026) can be followed below.

Holding throughout (type): cell-based, human
In assay [1] the test system is hiPSC-CMs. The assay is described as follows: Sarcomere alignment and contractility on micropatterns. The settings on record: C59 added to cells previously treated with CHIR (CHIR>C59). How it is done:
Cells were plated on soft substrates with micropatterned proteins on top. After 3-6 days of culture high resolution movies (Sony Microscopy) were recorded for at least 10 individual cells per group and motion velocity analysis was processed digitally. After recordings, cells were fixed and used for immunohistochemistry and confocal imaging. Sarcomere alignment was quantified with Image J software. CM maturation is accompanied by the formation of highly structured sarcomere, bi- or multinucleation, and cell cycle exit (Bassat et al., 2017; Bersell et al., 2009; Senyo et al., 2014; Uygur and Lee, 2016). […] To address this, age-matched hiPSC-CMs exposed to media containing DMSO (CTR) were compared to ones that have undergone 3 passages in media containing 2.0 μM CHIR using various phenotypic assays of CM function. To assess sarcomere alignment, CHIR and CTR hiPSC-CMs on 7:1 aspect ratio micropatterns (Ribeiro et al., 2015) were cultured and immunostained with TnT and sarcomeric actinin antibodies.

For assay [2], the system named is hiPSC-CMs. The assay is described as follows: ki67/pHH3 proliferation and binucleation of hiPSC-CMs (immunofluorescence). The settings on record: day 12 hiPSC-CMs (P0), 24 hrs treatment. How it is done:
Immunohistochemistry was performed with the incubation of primary antibodies overnight followed by 2 hours of incubation with various Alexa fluorescence conjugated secondary antibodies. Images were made with confocal (Zeiss LSM 710) or regular immunofluorescence microscopy (Leica DM IL LED). Primaries used in this study were cardiac troponin T (MS-295, Fisher), Ki67 (ab15580, Abcam), pHH3 (#9701, Cell Signaling), aurora B (ab2254, Abcam), alpha sarcomeric actinin ([…], Sigma-Aldrich), MLC2V (ab48003, Abcam), phospo AKT […] (#9275, Cell Signaling). […] To examine this, the percentage was determined of troponin T (TnT) positive hiPSC-CMs that express the cell cycle marker ki67 or the mitosis marker phospho-histone H3 (pHH3) at each passage after treatment with CHIR or DMSO (CTR) (FIG. 2A-C). […] The short-term (24 hrs) changes were assessed in proliferation rate of day 12 hiPSC-CMs (P0) after treatment with CHIR-, CTR-, or C59, a specific inhibitor of Wnt signaling (FIG. 2I-J).

Assay [3] has as its system hiPSC-CMs. Briefly: Real-time PCR / immunostaining of cardiac gene expression in hiPSC-CMs. How it is done:
For quantitative analysis of gene expression, RNA was extracted with a lysis buffer (Qiagen) from hiPSC-CMs and stored at −80° C. Total RNA from each sample was purified from cell lysate using a RNA purification kit (Qiagen). cDNA was made using iScript cDNA synthesis kit (BioRad). Quantitative PCR was performed using a 96-well thermocycler system (Biorad) with SYBR Green substrate (Affymetrix) for 40 cycles. All primers sequences were obtained from the PrimerBank (Massachusetts General Hospital/Harvard Medical School) online database. […] Day 12 hiPSC-CMs were cultured in CHIR continuously for 2 months with serial passaging followed by CHIR withdrawal for an additional month.

Assay [4] deals with hiPSC-CMs. Briefly: CHIR-mediated hiPSC-CM proliferation with pathway inhibitors.
In the next assay the test system is TCF/LEF. Briefly: TOPFlash TCF/LEF luciferase reporter in day 12 hiPSC-CMs. Here is the method:
Day 12 hiPSC-CMs were transfected for 48h with a TCF reporter plasmid (TOPflash M50, Addgene) or the mutant reporter plasmid (TOPflash M51, Addgene) and the use of Lipofectamine 3000 (Invitrogen). 72h after transfection cells were treated with various small molecules for 24h. Cells were lysed and mixed with luciferase substrate (Promega) and the firefly luciferase expression was measured with a 96-well micro plate reader (Fisher).

In assay [5] the test system is hiPSC-CMs. Briefly: Cell cycle activity in well-differentiated hiPSC-CMs (ki67, pHH3, cell count). Conditions: 5 μM VPC23019 together with S1P. How it is done: To address this, well-differentiated hiPSC-CMs were generated (e.g. day 30 or later) using chemically-defined protocols (Burridge et al. 2014; Churko et al. 2013; Sharma et al. 2015) (Movie S1) and treated them with S1P/LPA or CHIR or both (FIG. 18A). The presence of S1P/LPA receptors in these cells was first validated (FIG. 21). Immunofluorescence staining was then performed for ki67, a marker of cell cycle activity, and phospho Histone H3 (pHH3), a mitosis marker, in cardiac troponin T (TnT) positive cells.

The test system of a further assay is YAP. The assay is described as follows: YAP nuclear accumulation in hiPSC-CMs. The settings on record: day 10 or day 30 hiPSC-CMs. How it is done: Given the well-known role of Hippo/Yap signaling in regulating cardiomyocyte and non-myocyte proliferation and regeneration (Yusuf et al. 2012; Heallen et al. 2011; Morikawa et al. 2017; Leach et al. 2017; von Gise et al. 2012), the ability of bioactive lipids was assessed to promote nuclear accumulation of Yap (FIG. 23). […] Consequently, no increase in nuclear YAP accumulation was observed following bioactive lipid treatment (FIG. 23B).

Assay [6] has as its system hiPSC-CMs. The assay is described as follows: Wnt receptor ligands on hiPSC-CM expansion and cell-cycle reactivation. Conditions: day 12 proliferative hiPSC-CMs. The source says: Reactivating Wnt signaling may promote proliferation in aged, non-proliferative CMs rather than simply maintain pre-existing proliferation (FIG. 6A). […]

Take `Cc1cc(-c2ccc(CC(=O)Nc3ccc(-c4cccnc4)cc3)cc2)ccn1` [C59]: in the assay with hiPSC-CMs [1], the “sarcomere organization after C59” value was “reorganization of their sarcomeres to a state similar to the age-matched control hiPSC-CMs”. Besides, the “ki67 expression / proliferation rate” value in the assay with hiPSC-CMs [2] was “did not result in a decreased rate of hiPSC-CM proliferation”. For the same molecule, the “expression of maturation, excitation, contractility and metabolism markers” value in the assay with hiPSC-CMs [3] (3 additional weeks after CHIR day 12 to 28, compared with continued CHIR) is on record as “upregulation of markers associated with cardiomyocyte maturation”. Besides, the MYL2 immunofluorescence staining result in the assay with hiPSC-CMs [3] (compared with CHIR-treated cells) was “increase in immunofluorescence staining for MYL2”.
As for `NC1(c2ccc(-c3nc4ccn5c(=O)[nH]nc5c4cc3-c3ccccc3)cc2)CCC1` [MK2206], the “mitotic cells expressing pAKT” value in the assay with hiPSC-CMs [4] (CHIR and MK2206 vs CHIR alone) is recorded as “far fewer mitotic cells”. Moreover, the CM replication entry in the assay on hiPSC-CMs [4] (CHIR and MK2206 vs CHIR alone, 6 days) was “decreased”. Further, in the assay with TCF/LEF (CHIR and MK2206, 24 hrs), the TCF/LEF luciferase activity result was “not due to the downregulation of downstream β-catenin signaling”.
Turning to `Cc1ccc(/C=N/NC(=O)c2ccccc2Oc2ccccc2)o1` [PNU74654], the “decrease of CHIR-mediated hiPSC-CM proliferation” value in the assay on hiPSC-CMs [4] (CHIR in the presence of PNU74654 vs CHIR alone) is about 50%. The “CHIR-induced activation of TCF/LEF luciferase reporter” value in the assay on TCF/LEF (CHIR in the presence of PNU74654, 24 hrs) is “abolished”. In the assay with hiPSC-CMs [3] (co-treatment with CHIR, qPCR), the “CHIR-induced Wnt target gene expression” value is given as “abolish this increase” and the “markers of hiPSC-CM maturation (MYL2, MYH7, MYOM1)” value is recorded as “recovered fully”.
Turning to `CCCCCCCCc1cccc(NC(=O)[C@H](N)COP(=O)(O)O)c1` [VPC23019], the “expression of ki67 in S1P-treated hiPSC-CMs” value in the assay with hiPSC-CMs [5] is listed as “reduced”.
Consider lysophosphatidic acid [LPA], for which the YAP nuclear accumulation result in the assay with YAP is reported as “No significant (N.S.) increase in YAP nuclear accumulation”.

B1: Wnt3A: purified Wnt3A protein (R&D systems), Wnt receptor ligand (protein, UniProt P56704 19-352, looked up)
Protein Wnt-3a: SYPIWWSLAVGPQYSSLGSQPILCASIPGLVPKQLRFCRNYVEIMPSVAEGIKIGIQECQHQFRGRRWNCTTVHDSLAIFGPVLDKATRESAFVHAIASAGVAFAVTRSCAEGTAAICGCSSRHQGSPGKGWKWGGCSEDIEFGGMVSREFADARENRPDARSAMNRHNNEAGRQAIASHMHLKCKCHGLSGSCEVKTCWWSQPDFRAIGDFLKDKYDSASEMVVEKHRESRGWVETLRPRYTYFKVPTERDLVYYEASPNFCEPNPETGSFGTRDRTCNVSSHGIDGCDLLCCGRGHNARAERRREKCRCVFHWCCYVSCQECTRVYDVHTCK
For B1, the “CM expansion (TnT positive cell number)” value in the assay on hiPSC-CMs [6] is “promoted CM expansion”.
